Values joined by “and” are separate entries in the source; they are usually repeats but may differ in a detail not shown here. Equal values may be shown once. Inconclusive results and toxic doses are left out. Rule as the data show it: active = T/C of 150% or more; inactive = T/C below 125%.
Test system: L1210 leukemia ip in BDF1 mice, survival T/C
Experiment: NCI In Vivo Anticancer Drug Screen. Data for tumor model L1210 Leukemia (intraperitoneal) in B6D2F1 (BDF1) mice
Details: endpoint: mean survival time, higher = longer survival
Method in brief: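 In this screen, tumor-bearing mice given compound are compared to those given vehicle, and their survival values are reported as a treated-to-control quotient.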

[1] = dose: 100.0 mg/kg/injection, schedule: Q01DX001 (ip), vehicle: saline
[2] = dose: 200.0 mg/kg/injection, schedule: Q01DX001 (ip), vehicle: saline
[3] = dose: 400.0 mg/kg/injection, schedule: Q01DX001 (ip), vehicle: saline
[4] = dose: 50.0 mg/kg/injection, schedule: Q01DX001 (ip), vehicle: saline
[5] = dose: 100.0 mg/kg/injection, schedule: Q01DX009 (ip), vehicle: Klucel (hydroxypropylcellulose) (HPC)
[6] = dose: 100.0 mg/kg/injection, schedule: Q04DX003 (ip), vehicle: Klucel (hydroxypropylcellulose) (HPC)
[7] = dose: 200.0 mg/kg/injection, schedule: Q01DX009 (ip), vehicle: Klucel (hydroxypropylcellulose) (HPC)
[8] = dose: 400.0 mg/kg/injection, schedule: Q01DX009 (ip), vehicle: Klucel (hydroxypropylcellulose) (HPC)
[9] = dose: 400.0 mg/kg/injection, schedule: Q04DX003 (ip), vehicle: Klucel (hydroxypropylcellulose) (HPC)
[10] = dose: 200.0 mg/kg/injection, schedule: Q04DX003 (ip), vehicle: Klucel (hydroxypropylcellulose) (HPC)
[11] = dose: 100.0 mg/kg/injection, schedule: Q04DX003 (ip), vehicle: saline with Tween-80
[12] = dose: 200.0 mg/kg/injection, schedule: Q04DX003 (ip), vehicle: saline with Tween-80
[13] = dose: 400.0 mg/kg/injection, schedule: Q04DX003 (ip), vehicle: saline with Tween-80
[14] = dose: 25.0 mg/kg/injection, schedule: Q01DX009 (ip), vehicle: Klucel (hydroxypropylcellulose) (HPC)
[15] = dose: 50.0 mg/kg/injection, schedule: Q01DX009 (ip), vehicle: Klucel (hydroxypropylcellulose) (HPC)

Measured: T/C

O=S(=O)(Cc1ccccc1)C1CCCC1
inactive: [1] 104 % of control | dose: 100.0 mg/kg/injection, schedule: Q01DX009 (ip), vehicle: saline 96 % of control | dose: 100.0 mg/kg/injection, schedule: Q04DX003 (ip), vehicle: acetone 103 % of control | [2] 104 % of control | dose: 200.0 mg/kg/injection, schedule: Q01DX009 (ip), vehicle: saline 110 % of control | dose: 200.0 mg/kg/injection, schedule: Q04DX003 (ip), vehicle: acetone 97 % of control | [3] 93 % of control | dose: 400.0 mg/kg/injection, schedule: Q01DX009 (ip), vehicle: saline 113 % of control | dose: 400.0 mg/kg/injection, schedule: Q04DX003 (ip), vehicle: acetone 102 % of control

COc1cc(O)c2ncccc2c1O
inactive: dose: 5.0 mg/kg/injection, schedule: Q01DX001 (ip), vehicle: saline 95 % of control | dose: 10.0 mg/kg/injection, schedule: Q01DX001 (ip), vehicle: saline 101 % of control | dose: 20.0 mg/kg/injection, schedule: Q01DX001 (ip), vehicle: saline 106 % of control | dose: 35.0 mg/kg/injection, schedule: Q01DX001 (ip), vehicle: saline 86 % of control and 91 % of control | dose: 40.0 mg/kg/injection, schedule: Q01DX001 (ip), vehicle: saline 103 % of control | [4] 93 % of control and 89 % of control

COc1cccc(C(=O)O)c1OS(=O)(=O)c1ccccc1
inactive: [5] 98 % of control | [6] 91 % of control | [7] 95 % of control | [8] 93 % of control | [9] 94 % of control

c1ccc(-c2c3ccccc3c(-c3ccccc3)c3c(-c4ccccc4)c4ccccc4c(-c4ccccc4)c23)cc1
inactive: dose: 100.0 mg/kg/injection, schedule: Q04DX002 (ip), vehicle: Klucel (hydroxypropylcellulose) (HPC) 95 % of control | dose: 200.0 mg/kg/injection, schedule: Q04DX002 (ip), vehicle: Klucel (hydroxypropylcellulose) (HPC) 98 % of control | dose: 400.0 mg/kg/injection, schedule: Q04DX002 (ip), vehicle: Klucel (hydroxypropylcellulose) (HPC) 109 % of control

c1ccc(CCCCc2ccccn2)cc1
inactive: [5] 105 % of control | [6] 101 % of control | [7] 105 % of control | [10] 105 % of control | [8] 97 % of control | [9] 94 % of control

O=[N+]([O-])c1cccc(S(=O)(=O)N2CCN(S(=O)(=O)c3cccc([N+](=O)[O-])c3)C2)c1
inactive: [5] 95 % of control | [6] 97 % of control | [7] 103 % of control | [10] 93 % of control | [8] 97 % of control | [9] 97 % of control

CCCCC(/C=C/c1ccc2ccccc2n1)CC (centres undefined)
inactive: [4] 103 % of control | [1] 113 % of control

O=c1[nH][nH]c(=O)c2c1CCCC2
inactive: dose: 50.0 mg/kg/injection, schedule: Q01DX009 (ip), vehicle: saline with Tween-80 98 % of control | dose: 100.0 mg/kg/injection, schedule: Q01DX009 (ip), vehicle: saline with Tween-80 95 % of control | dose: 200.0 mg/kg/injection, schedule: Q01DX009 (ip), vehicle: saline with Tween-80 109 % of control

CCCCCCCCCCCCCCCCCCCCCCCC(=O)NCCc1c[nH]c2ccc(O)cc12 (tested in a mixture with another compound)
inactive: [11] 96 % of control | [12] 96 % of control | [13] 86 % of control

CCC(Cl)COP(=O)(OC(c1ccc(Cl)c(Cl)c1)P(=O)(OCC(Cl)CC)OCC(Cl)CC)C(CC)CCl (centres undefined)
inactive: dose: 100.0 mg/kg/injection, schedule: Q01DX001 (ip), vehicle: saline with Tween-80 104 % of control | dose: 200.0 mg/kg/injection, schedule: Q01DX001 (ip), vehicle: saline with Tween-80 95 % of control | dose: 400.0 mg/kg/injection, schedule: Q01DX001 (ip), vehicle: saline with Tween-80 101 % of control

O=c1[nH]cc(B(O)O)c(=O)[nH]1
inactive: [1] 94 % of control | [2] 98 % of control | [3] 98 % of control

Cn1c2ccccc2c(=O)c2ccccc21
inactive: [1] 117 % of control | [2] 101 % of control | [3] 101 % of control

CCNCCNc1ccc(CO)c2sc3cc(Cl)ccc3c(=O)c12
inactive: [14] 99 % of control | [15] 100 % of control

CC(=O)C(C(c1ccccc1)N1CCCc2ccccc21)N1CCOCC1 (centres undefined)
inactive: [5] 96 % of control | [7] 91 % of control | [8] 98 % of control

Cc1ccc(NCC(O)CN2CCN(CC(O)CNc3ccc(C)cc3)CC2)cc1 (centres undefined)
inactive: dose: 100.0 mg/kg/injection, schedule: Q01DX001 (ip), vehicle: other 106 % of control | [6] 88 % of control | dose: 200.0 mg/kg/injection, schedule: Q01DX001 (ip), vehicle: other 95 % of control | [10] 94 % of control | dose: 400.0 mg/kg/injection, schedule: Q01DX001 (ip), vehicle: other 95 % of control | [9] 91 % of control

CN1CC2C(N)N=C(N)NC2C1(C)C (centres undefined)
inactive: dose: 100.0 mg/kg/injection, schedule: Q04DX002 (ip), vehicle: saline 101 % of control | dose: 200.0 mg/kg/injection, schedule: Q04DX002 (ip), vehicle: saline 93 % of control | dose: 400.0 mg/kg/injection, schedule: Q04DX002 (ip), vehicle: saline 90 % of control

CCCNC(=O)/C=C/C(=O)NCCC
inactive: dose: 100.0 mg/kg/injection, schedule: Q04DX003 (ip), vehicle: saline 100 % of control | dose: 200.0 mg/kg/injection, schedule: Q04DX003 (ip), vehicle: saline 100 % of control | dose: 400.0 mg/kg/injection, schedule: Q04DX003 (ip), vehicle: saline 100 % of control

Cn1c2ccccc2c2cc3cnccc3cc21
inactive: dose: 37.5 mg/kg/injection, schedule: Q04DX003 (ip), vehicle: Klucel (hydroxypropylcellulose) (HPC) 102 % of control | dose: 75.0 mg/kg/injection, schedule: Q04DX003 (ip), vehicle: Klucel (hydroxypropylcellulose) (HPC) 105 % of control | dose: 150.0 mg/kg/injection, schedule: Q04DX003 (ip), vehicle: Klucel (hydroxypropylcellulose) (HPC) 106 % of control | dose: 300.0 mg/kg/injection, schedule: Q04DX003 (ip), vehicle: Klucel (hydroxypropylcellulose) (HPC) 111 % of control

CSc1ncnc2c1ncn2/N=C/C1OC(C)OCC1O (centres undefined)
inactive: [6] 93 % of control | [10] 98 % of control | [9] 98 % of control

CCOc1ccc(NC(=O)OCCCl)cc1
inactive: dose: 75.0 mg/kg/injection, schedule: Q04DX002 (ip), vehicle: Klucel (hydroxypropylcellulose) (HPC) 105 % of control | dose: 150.0 mg/kg/injection, schedule: Q04DX002 (ip), vehicle: Klucel (hydroxypropylcellulose) (HPC) 105 % of control | dose: 300.0 mg/kg/injection, schedule: Q04DX002 (ip), vehicle: Klucel (hydroxypropylcellulose) (HPC) 101 % of control

CN(C)C(=O)C1Cc2ccccc2CC1C(=O)N(C)C (centres undefined)
inactive: [15] 97 % of control | [5] 97 % of control | [6] 101 % of control | [7] 101 % of control | [10] 102 % of control | [9] 97 % of control

CC1CCC(C(C)C)C(N(C)Cc2cc(Br)cc(Br)c2O)C1 (centres undefined)
inactive: [15] 102 % of control | [5] 107 % of control | [11] 104 % of control | [7] 105 % of control | [12] 104 % of control | [13] 98 % of control

O=C(CCC(C(=O)c1ccccc1)c1ccccc1)c1ccc(-c2ccccc2)cc1 (centres undefined)
inactive: dose: 87.5 mg/kg/injection, schedule: Q01DX009 (ip), vehicle: Klucel (hydroxypropylcellulose) (HPC) 94 % of control

O=C(c1ccc(Cl)cc1)C(C(c1ccc([N+](=O)[O-])cc1)N1CCCCC1)N1CCCCC1 (centres undefined)
inactive: dose: 12.5 mg/kg/injection, schedule: Q01DX001 (ip), vehicle: Klucel (hydroxypropylcellulose) (HPC) 98 % of control | dose: 12.5 mg/kg/injection, schedule: Q01DX009 (ip), vehicle: Klucel (hydroxypropylcellulose) (HPC) 102 % of control | dose: 25.0 mg/kg/injection, schedule: Q01DX001 (ip), vehicle: Klucel (hydroxypropylcellulose) (HPC) 104 % of control | [14] 98 % of control | dose: 50.0 mg/kg/injection, schedule: Q01DX001 (ip), vehicle: Klucel (hydroxypropylcellulose) (HPC) 102 % of control | [15] 101 % of control | dose: 400.0 mg/kg/injection, schedule: Q01DX001 (ip), vehicle: Klucel (hydroxypropylcellulose) (HPC) 92 % of control

CNC1C(O)C(OC)OC2COC(c3ccccc3)OC21 (centres undefined)
inactive: [11] 93 % of control | [12] 93 % of control

C/C(=N/NC(N)=O)c1cccc([N+](=O)[O-])c1
inactive: [1] 89 % of control | [2] 89 % of control | [3] 93 % of control

From PubChem BioAssay AID248 (DTP/NCI, 2004)
